Measured values from PMC11288129, “Diversely evolved xibalbin variants from remipede venom inhibit potassium channels and activate PKA-II and Erk1/2 signaling” (BMC Biology, 2024).
“Also recorded” adds a separate entry of the source. Marks after values point to notes of the source that are not given here. Positions of bridges follow the written chain, without caps; N, C: chain ends. No end group written: not given here.

Legend:
[1] = test system: hCav3.1; test: TEVC inhibition, Cav3.1; type: cell-based, human; design: unit not given here; conditions: 1 µM
Description: (§1) For the expression of Kv channels rat Kv1.1 (GenBank accession number: NM_173095 [88, 89]), rKv1.2 (NM_012970 [90, 91]), human Kv1.3 (NM_002232 [92, 93]), rKv1.4 (NM_012971 [94, 95]), rKv1.6 (NM_023954 [96, 97]), hKv2.1 (NM_004975 [98, 99]), hKv3.1 (NM_004976 [100, 101]), rKv4.2 (NM_031739 [102, 103]), hKv10.1 (NM_172362 [104, 105]), hERG1 [Kv11.1, (NM_000238 [106, 107])], and Shaker IR [from Drosophila melanogaster, (NM_167595 [108, 109])], Nav channels [rNav1.2 (NM_012647 [42, 110]), rNav1.4 (NM_013178 [111, 112]), hNav1.5 (NM_198056 [113, 114]), mNav1.6 (NM_001077499 [115, 116]), BgNav [from Blattella germanica, (DQ466887 [117, 118])] and the auxiliary subunits rβ1 (NM_001271045 [119, 120]), hβ1 (NM_001037 [121, 122]), and TipE [from D. melanogaster, (NM_079196 [109, 123])], and Cav channels hCav3.1 [124, 125], hCav3.2 [126, 127], and hCav3.3 [128, 129] in Xenopus oocytes, the linearized plasmids were transcribed using the T7 or SP6 mMESSAGEmMACHINE transcription kit (Ambion, Austin, TX, USA). Mature female animals were purchased from Nasco (Fort Atkinson, USA) and were housed in the Aquatic Facility (KU Leuven) in compliance with the regulations of the European Union (EU) concerning the welfare of laboratory animals as declared in Directive 2010/63/EU. The use of X. laevis oocytes was approved by the Animal Ethics Committee of the KU Leuven with the license number P186/2019. Stage V–VI oocytes were collected from anesthetized female X. laevis frog as previously described, with the frogs anesthetized by placement in 0.1% tricaine solution (amino benzoic acid ethyl ester; Merck, USA). Oocyte microinjection was performed using a microinjector (Drummond Scientifc®, USA), with a programmed cRNA injection volume of 4—50 nL, depending on the channel subtype. The oocytes were incubated in ND96 solution (96 mM NaCl, 2 mM KCl, 1.8 mM CaCl2, 2 mM MgCl2, and 5 mM HEPES, pH 7.4), supplemented with 50 mg/l gentamicin sulfate.
(§2) Electrophysiological measurements were performed at room temperature (18–22 °C) using the two-electrode voltage clamp (TEVC) technique. Data were obtained using a GeneClamp 500 amplifier (Axon Instruments, USA), and Clampex9 software (Axon Instruments), responsible for data acquisition and storage. Glass micropipettes were produced using glass capillaries (borosilicate WPI 1B120-6) and drawn in a WPI (World Precision Instruments, USA) manual stretcher. The bath and perfusion solutions were either the previously described ND96 (Nav and Kv channels) or calcium-free ND96 supplemented with 10 mM BaCl2 (Cav channels).
(§3) Whole-cell currents of oocytes were recorded 1 to 3 days after injection. Current and voltage electrodes were filled with 3 M KCl and their resistance was adjusted from 0.7 to 2.0 MΩ. Currents were sampled at 20 kHz (Nav channels) and 10 kHz (Kv and Cav channels) and filtered using a four-pole Bessel low-pass Bessel filter, at 1 kHz for sodium, and […] for potassium and calcium, except for the hERG ion channel, in which the currents were filtered at 1 kHz. Leak subtraction was performed using a -P/4 protocol. Kv1.x currents were evoked by 500 ms depolarizations to 0 mV followed by a 500-ms pulse to − 50 mV, from a holding potential of − 90 mV. Kv2.1, Kv3.1, and Kv4.2 currents were elicited by 500 ms pulses to + 20 mV from a holding potential of − 90 mV. Current traces of Kv10.1 were elicited by 2 s depolarization to 0 mV, from a holding potential of − 90 mV. Current traces of hERG1 channel were elicited by applying a + 40 mV prepulse for 2 s followed by a step of − 120 mV for 2 s. Sodium current traces were evoked by a 100 ms depolarization to 0 mV, from a holding potential of − 90 mV. The current–voltage (IV) relationships were determined by 100-ms step depolarizations between − 90 and + 40 mV, using 5 mV increments. […]

[2] = test system: rNav1.4; test: TEVC current-voltage relationship (Vhalf), Nav1.4; type: cell-based, rat; design: Vhalf, toxin inactivation, Nav1.4 / Vhalf, toxin activation, Nav1.4: unit not given here; conditions: for Vhalf, toxin activation, Nav1.4 / Vhalf, toxin inactivation, Nav1.4: 1 µM
Description: as §1, §2, §3

[3] = test system: hKv3.1; test: TEVC inhibition, Kv3.1; type: cell-based, human; design: unit not given here; conditions: 1 µM
Description: as §1, §2, §3

[4] = test system: rKv1.6; test: TEVC inhibition, Kv1.6; type: cell-based, rat; conditions: 1 µM
Description: as §1, §2, §3

[5] = test system: voltage-gated sodium channels (Nav); test: TEVC on panel of voltage-gated sodium channels; type: cell-based; conditions: 1 µM
Description: (§4) For the expression of Kv channels rat Kv1.1 (GenBank accession number: NM_173095 [88, 89]), rKv1.2 (NM_012970 [90, 91]), human Kv1.3 (NM_002232 [92, 93]), rKv1.4 (NM_012971 [94, 95]), rKv1.6 (NM_023954 [96, 97]), hKv2.1 (NM_004975 [98, 99]), hKv3.1 (NM_004976 [100, 101]), rKv4.2 (NM_031739 [102, 103]), hKv10.1 (NM_172362 [104, 105]), hERG1 [Kv11.1, (NM_000238 [106, 107])], and Shaker IR [from Drosophila melanogaster, (NM_167595 [108, 109])], Nav channels [rNav1.2 (NM_012647 [42, 110]), rNav1.4 (NM_013178 [111, 112]), hNav1.5 (NM_198056 [113, 114]), mNav1.6 (NM_001077499 [115, 116]), BgNav [from Blattella germanica, (DQ466887 [117, 118])] and the auxiliary subunits rβ1 (NM_001271045 [119, 120]), hβ1 (NM_001037 [121, 122]), and TipE [from D. melanogaster, (NM_079196 [109, 123])], and Cav channels hCav3.1 [124, 125], hCav3.2 [126, 127], and hCav3.3 [128, 129] in Xenopus oocytes, the linearized plasmids were transcribed using the T7 or SP6 mMESSAGEmMACHINE transcription kit (Ambion, Austin, TX, USA). […]
(§5) Whole-cell currents of oocytes were recorded 1 to 3 days after injection. […] The current–voltage (IV) relationships were determined by 100-ms step depolarizations between − 90 and + 40 mV, using 5 mV increments. […]

[6] = test system: hERG1 (Kv11.1); test: TEVC inhibition, Kv11.1 (hERG1); type: cell-based; conditions: human, Xenopus laevis oocytes expressing hERG1 (Kv11.1), pH 7.4, replicate 1
Description: as §4, §5

[7] = test system: BgNav; test: TEVC inhibition, BgNav; type: cell-based, Blattella germanica; design: Inhibition data, BgNav: unit not given here; conditions: 1 µM
Description: as §1, §2, §3

[8] = test system: hNav1.5; test: TEVC current-voltage relationship (Vhalf), Nav1.5; type: cell-based, human; design: Vhalf, toxin inactivation, Nav1.5 / Vhalf, toxin activation, Nav1.5: unit not given here; conditions: for Vhalf, toxin activation, Nav1.5 / Vhalf, toxin inactivation, Nav1.5: 1 µM
Description: as §1, §2, §3

[9] = test system: Shaker IR; test: TEVC inhibition, Shaker IR; type: cell-based, Drosophila melanogaster; design: unit not given here; conditions: 1 µM
Description: as §1, §2, §3

KRSCIRRFGRCDHRPNDCCYNSSCRCNLWGSNCRCQRMGLFQKWGK (disulfide 4-19, 11-24, 18-35, 26-33) [xib13]
Inhibition data, Cav3.1 ([1]; replicate 1): 0.0
Inhibition data, Cav3.1 ([1]; replicate 2): 0.0
Inhibition data, Cav3.1 ([1]; replicate 3): 0.0
Inhibition data, Cav3.1 ([1]; replicate 4): 0.0
Vhalf activation shift, Nav1.4 ([2]; 1 µM versus control (ND96)): 3.4 mV
Vhalf, toxin activation, Nav1.4 ([2]; replicate 1): -16.1478
Vhalf, toxin inactivation, Nav1.4 ([2]; replicate 1): -45.0612
Vhalf, toxin activation, Nav1.4 ([2]; replicate 2): -15.8394
Vhalf, toxin inactivation, Nav1.4 ([2]; replicate 2): -52.747
Vhalf, toxin activation, Nav1.4 ([2]; replicate 3): -14.4257
Vhalf, toxin inactivation, Nav1.4 ([2]; replicate 3): -47.6866
Inhibition data, Kv3.1 ([3]; replicate 1): 0.0
Inhibition data, Kv3.1 ([3]; replicate 2): 0.0
Inhibition data, Kv3.1 ([3]; replicate 3): 0.0
Inhibition data, Kv3.1 ([3]; replicate 4): 0.0
Inhibition data, Kv1.6 ([4]; replicate 1): 81.2
Inhibition data, Kv1.6 ([4]; replicate 2): 87.8
Inhibition data, Kv1.6 ([4]; replicate 3): 79.9
inhibition of voltage-gated sodium channels [5]: inhibit voltage-gated sodium channels; also recorded: mild inhibition; also recorded: most significant inhibition rates
inhibition at 1 µM [6]: 0%
inhibition of BgNav [7]: targeted
Inhibition data, BgNav ([7]; replicate 1): 51.7
Inhibition data, BgNav ([7]; replicate 2): 40.6
Inhibition data, BgNav ([7]; replicate 3): 30.9
Inhibition data, BgNav ([7]; replicate 4): 44.2
Vhalf activation shift, Nav1.5 ([8]; 1 µM versus control (ND96)): 5.9*** mV
Vhalf, toxin activation, Nav1.5 ([8]; replicate 1): -22.7699
Vhalf, toxin inactivation, Nav1.5 ([8]; replicate 1): -59.4076
Vhalf, toxin activation, Nav1.5 ([8]; replicate 2): -23.9735
Vhalf, toxin inactivation, Nav1.5 ([8]; replicate 2): -59.2524
Vhalf, toxin activation, Nav1.5 ([8]; replicate 3): -25.0967
Vhalf, toxin inactivation, Nav1.5 ([8]; replicate 3): -59.4209
Inhibition data, Shaker ([9]; replicate 1): 0.0
Inhibition data, Shaker ([9]; replicate 2): 0.0
Inhibition data, Shaker ([9]; replicate 3): 0.0
Inhibition data, Shaker ([9]; replicate 4): 0.0

RLFCIRHHKYCGHRPKRCCSGLFCRCNTFGTNCRCQSKGALGKLI (disulfide 4-19, 11-24, 18-35, 26-33) [xib1]
Inhibition data, Cav3.1 ([1]; replicate 1): 0.0
Inhibition data, Cav3.1 ([1]; replicate 2): 0.0
Inhibition data, Cav3.1 ([1]; replicate 3): 0.0
Inhibition data, Cav3.1 ([1]; replicate 4): 0.0
Vhalf, toxin activation, Nav1.4 ([2]; replicate 1): -19.1826
Vhalf, toxin inactivation, Nav1.4 ([2]; replicate 1): -47.3987
Vhalf, toxin activation, Nav1.4 ([2]; replicate 2): -12.5775
Vhalf, toxin inactivation, Nav1.4 ([2]; replicate 2): -44.7262
Vhalf, toxin activation, Nav1.4 ([2]; replicate 3): -17.1419
Vhalf, toxin inactivation, Nav1.4 ([2]; replicate 3): -46.0496
Inhibition data, Kv3.1 ([3]; replicate 1): 0.0
Inhibition data, Kv3.1 ([3]; replicate 2): 0.0
Inhibition data, Kv3.1 ([3]; replicate 3): 0.0
Inhibition data, Kv3.1 ([3]; replicate 4): 0.0
Inhibition data, Kv1.6 ([4]; replicate 1): 80.8
Inhibition data, Kv1.6 ([4]; replicate 2): 59.7
Inhibition data, Kv1.6 ([4]; replicate 3): 81.8
Inhibition data, Kv1.6 ([4]; replicate 4): 80.2
inhibition of voltage-gated sodium channels [5]: inhibit voltage-gated sodium channels; also recorded: mild inhibition
inhibition at 1 µM [6]: 0%
inhibition of BgNav [7]: targeted
Inhibition data, BgNav ([7]; replicate 1): 10.1
Inhibition data, BgNav ([7]; replicate 2): 7.7
Inhibition data, BgNav ([7]; replicate 3): 7.6
Inhibition data, BgNav ([7]; replicate 4): 7.6
Vhalf inactivation shift, Nav1.5 ([8]; 1 µM versus control (ND96)): 1.5 mV
Vhalf, toxin activation, Nav1.5 ([8]; replicate 1): -27.2261
Vhalf, toxin inactivation, Nav1.5 ([8]; replicate 1): -60.2865
Vhalf, toxin activation, Nav1.5 ([8]; replicate 2): -20.8548
Vhalf, toxin inactivation, Nav1.5 ([8]; replicate 2): -53.6522
Vhalf, toxin activation, Nav1.5 ([8]; replicate 3): -24.2578
Vhalf, toxin inactivation, Nav1.5 ([8]; replicate 3): -54.899
Vhalf, toxin activation, Nav1.5 ([8]; replicate 4): -22.0356
Vhalf, toxin inactivation, Nav1.5 ([8]; replicate 4): -51.823
Inhibition data, Shaker ([9]; replicate 1): 0.0
Inhibition data, Shaker ([9]; replicate 2): 0.0
Inhibition data, Shaker ([9]; replicate 3): 0.0
Inhibition data, Shaker ([9]; replicate 4): 0.0
